Test [1] deals with recombinant biotinylated KRAS protein containing G12C/C51S/C80L/C118S mutations (Biotinylated KRAS G12C protein) (Homo sapiens (Human), UniProt P01116, C118S/C51S/C80L/G12C). In words: SOS-catalyzed nucleotide exchange assay (TR-FRET). The conditions noted are these: apparent potency; preincubation time of 60 minutes prior to addition of SOS. Format: biochemical. On the procedure: The SOS-catalyzed nucleotide exchange assay utilizes a preformed complex of recombinant biotinylated KRAS protein containing G12C/C51S/C80L/C118S mutations (183 amino acids; biotin on K10; leader sequence which is an AviTag; referred to as SEQ ID NO: 1 or “Biotinylated KRAS G12C protein” hereafter), Bodipy-GDP, and Terbium-streptavidin. Compounds are added to this complex and then after 60 minutes incubation time, the mixture is treated with recombinant SOS protein and unlabeled GTP. Small molecule inhibitors stabilize the Bodipy-GDP complex whereas the untreated protein rapidly exchanges Bodipy-GDP for unlabeled GTP resulting in reduced TR-FRET signal.
Sequence of recombinant biotinylated KRAS protein containing G12C/C51S/C80L/C118S mutations (Biotinylated KRAS G12C protein) (P01116 other isoform, or with tags, fused parts or gaps, stated change not applied): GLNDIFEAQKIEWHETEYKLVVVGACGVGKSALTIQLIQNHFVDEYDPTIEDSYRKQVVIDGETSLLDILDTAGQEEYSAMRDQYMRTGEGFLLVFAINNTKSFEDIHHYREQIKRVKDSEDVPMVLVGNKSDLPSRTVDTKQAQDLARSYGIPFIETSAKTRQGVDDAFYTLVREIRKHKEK
Biotinylated KRAS G12C protein (SEQ ID NO: 1) is diluted to 2 μM in an EDTA buffer (20 mM HEPES, 150 mM sodium chloride, 10 mM EDTA, and 0.01% Tween) and incubated at room temperature for one hour. This mixture is then further diluted to 90 nM in an assay buffer (20 mM HEPES, 150 mM sodium chloride, 10 mM magnesium chloride, and 0.005% Tween) containing 15 nM of Terbium-Streptavidin (Invitrogen, catalog #PV3577) and 900 nM of Bodipy-GDP and incubated at room temperature for six hours. This solution is referred to as Biotinylated KRAS G12C mixture.
Each test compound (10 mM stock in DMSO) is diluted in DMSO to make a 10-point, 3-fold dilution series in a 384-well low dead volume microplate (Labcyte, catalog #LP-0200). Once titrations are made, 10 nL of the diluted compounds is acoustically dispensed into a 384-well plate (Corning, catalog #3820) using an Echo 550 (Labcyte).
Each well of the plate receives 3 μL Biotinylated KRAS G12C mixture that had been incubating for six hours and 3 μL of assay buffer using a BioRAPTR (Beckman Coulter) and is incubated at room temperature for 60 minutes. Each well then receives 3 μL of 240 nM recombinant human SOS protein and 9 mM GTP (Sigma, G8877) in assay buffer and is incubated at room temperature for 60 minutes.
The time-resolved fluorescence resonance energy transfer signal of the plate is measured on an Envision (PerkinElmer) plate reader: Excitation filter=340 nm; emission1=495 nm; emission2=520 nm; dichroic mirror=D400/D505; delay time=100 μs. The signal of each well is determined as the ratio of the emission at 520 nm to that at 495 nm. Percent effect of each well is determined after normalization to control wells containing DMSO (no effect) or a saturating concentration of inhibitor (max effect). The apparent effect as a function of compound concentration is fit to a four parameter logistic equation.
On the technique in general: Time-resolved FRET reads energy transfer from a long-lived donor to a nearby acceptor.

Another test deals with NCI-H358 cells. In words: Cellular phospho-ERK assay. Format: cell-based. The note with it: 2 hour incubation, ratio of p-Erk vs total Erk, read-out: IC50 (nM) pERK (Cell). The procedure: NCI-H358 cells (ATCC® CRL-5807™) were cultured in T150 flask in growth medium (RPMI medium 1640-(ThermoFisher Scientific 61870) containing 10% fetal bovine serum (ThermoFisher Scientific 10091148)). The cells were harvested in growth medium after TrypLE (ThermoFisher scientific 12604021) digestion and were seeded in 384-well collagen coated cell culture plate (Corning 356702) at a density of 15,000 cells/well, and incubated at 37° C., 5% CO2 overnight. The compound dose-response titrations were prepared and appropriate amounts of compounds were dispensed in a 384-well intermediate plate using an Echo 550 liquid handler. RPMI medium 1640-GlutaMAX™-I were added to the intermediate plate and transferred to 384-well cell culture plate, which was incubated at 37° C., 5% CO2 for 2 hours. After removal of medium from the plate, cells were lysed in lysis buffer from SureFire® Ultra™ Multiplex p-Erk and total Erk assay kit (PerkinElmer MPSU-PTERK) containing Halt™ Protease and Phosphotase inhibitor cocktail (ThermoFisher Scientific 78446) at room temperature with constant shaking at 300 rpm for 30 minutes. The cell lysates were then transferred to OptiPlate-384 plate (PerkinElmer 6005620) and the phosphorylation of Erk and total Erk levels were detected by Alpha SureFire Ultra Multiplex p-Erk kit PerkinElmer MPSU-PTERK) following the manufacturer's protocol. Assay plates were read on an EnVision Multimode Plate Reader (PerkinElmer), and the ratio of p-Erk vs total Erk in each well was used as the final readout. Dose response curves were analyzed using a 4-parameter logistic model to calculate IC50 values using spotfire software.

For 26 compounds, IC50 results are on record in patent US20240124478A1, “SPIROCYCLIC-SUBSTITUTED 6,7-DIHYDRO-PYRANO[2,3-d]PYRIMIDINE INHIBITORS OF KRAS G12C MUTANT” (Merck Sharp & Dohme LLC, priority 2020, published 2024).

Where two headings read alike, the source gives them in different places.

In general, IC50 refers to the point on the concentration scale where inhibition reaches its midpoint.

For the compound `C=CC(=O)N1CCN(c2nc(OC[C@@H]3CCCN3C)nc3c2CCC2(CCCc4ccnc(O)c42)O3)C[C@@H]1CC#N` (mixture of isomers) [Example 8, 2-((2S)-1-acryloyl-4-(1-hydroxy-2′-(((S)-1-methylpyrrolidin-2-yl)methoxy)-5′,6,6′,7-tetrahydro-5H-spiro[isoquinoline-8,7′-pyrano[2,3-d]pyrimidin]-4′-yl)piperazin-2-yl)acetonitrile], the IC50 was 990 nM in test [1] and 23400 nM with NCI-H358 cells (Homo sapiens, NCI-H358, 2 h).
Turning to `C=CC(=O)N1CCN(c2nc(OC[C@@H]3CCCN3C)nc3c2CCC2(CCCc4cccc(C)c42)O3)C[C@@H]1CC#N` (single isomer, unassigned) [Example 1a], the IC50 was determined as 6.37 nM in test [1] and 495 nM in the test with NCI-H358 cells.
As to `C=CC(=O)N1CCN(c2nc(OC[C@@H]3CCCN3C)nc3c2CCC2(CCCc4cccc(C)c42)O3)C[C@@H]1CC#N` (single isomer, unassigned) [Example 1b], the IC50 in test [1] turned out to be 54.9 nM; in the test with NCI-H358 cells it was 2860 nM.
Consider `C=CC(=O)N1CCN(c2nc(OC[C@@H]3CCCN3C)nc3c2CCC2(CCCc4ccccc42)O3)C[C@@H]1CC#N` (single isomer, unassigned) [Example 2a], for which the IC50 in test [1] is 13.7 nM; with NCI-H358 cells (Homo sapiens, NCI-H358, 2 h), 154 nM.
Consider `C=CC(=O)N1CCN(c2nc(OC[C@@H]3CCCN3C)nc3c2CCC2(CCCc4ccccc42)O3)C[C@@H]1CC#N` (single isomer, unassigned) [Example 2b], for which the values for the IC50 (in test [1]; in the test with NCI-H358 cells) were 14.7 nM and 268 nM, respectively.
For `C=CC(=O)N1CCN(c2nc(OC[C@@H]3CCCN3C)nc3c2CCC2(CCCc4c(F)cccc42)O3)C[C@@H]1CC#N` (single isomer, unassigned) [Example 3a], the IC50 turned out to be 14.5 nM in test [1] and 506 nM in the test on NCI-H358 cells.
For `C=CC(=O)N1CCN(c2nc(OC[C@@H]3CCCN3C)nc3c2CCC2(CCCc4c(F)cccc42)O3)C[C@@H]1CC#N` (single isomer, unassigned) [Example 3b], in that order: 51 nM and 1120 nM.
On to `C=CC(=O)N1CCN(c2nc(OC[C@@H]3CCCN3C)nc3c2CCC2(CCc4ccccc42)O3)C[C@@H]1CC#N` (single isomer, unassigned) [Example 4a], for which the IC50 is 14.9 nM in test [1] and 311 nM with NCI-H358 cells.
Regarding `C=CC(=O)N1CCN(c2nc(OC[C@@H]3CCCN3C)nc3c2CCC2(CCc4ccccc42)O3)C[C@@H]1CC#N` (single isomer, unassigned) [Example 4b], the IC50 in test [1] was 164 nM; in the test on NCI-H358 cells, 2500 nM.
`C=CC(=O)N1CCN(c2nc(OCC[C@@H]3CCCN3C)nc3c2CCC2(CCCc4ccccc42)O3)C[C@@H]1CC#N` (single isomer, unassigned) [Example 5a]: the IC50 is 18.7 nM in test [1] and 1250 nM with NCI-H358 cells.
As for `C=CC(=O)N1CCN(c2nc(OCC[C@@H]3CCCN3C)nc3c2CCC2(CCCc4ccccc42)O3)C[C@@H]1CC#N` (single isomer, unassigned) [Example 5b], the IC50 worked out at 274 nM in test [1] and 5980 nM with NCI-H358 cells.
Take `C=CC(=O)N1CCN(c2nc(OC[C@@H]3CCCN3C)nc3c2CCC2(CCC(C)(C)c4ccccc42)O3)C[C@@H]1CC#N` (single isomer, unassigned) [Example 6a]: the IC50 in test [1] was found to be 181 nM; in the test on NCI-H358 cells (Homo sapiens, NCI-H358, 2 h), 3100 nM.
As to `C=CC(=O)N1CCN(c2nc(OC[C@@H]3CCCN3C)nc3c2CCC2(CCC(C)(C)c4ccccc42)O3)C[C@@H]1CC#N` (single isomer, unassigned) [Example 6b], the IC50 in test [1] was determined as 413 nM; with NCI-H358 cells it was 4370 nM.
On to `C=CC(=O)N1CCN(c2nc(OC[C@@H]3CCCN3C)nc3c2CCC2(CCC(F)(F)c4ccccc42)O3)C[C@@H]1CC#N` (single isomer, unassigned) [Example 7a], for which the IC50 in test [1] came out at 77.3 nM; with NCI-H358 cells (Homo sapiens, NCI-H358, 2 h), 1620 nM.
For `C=CC(=O)N1CCN(c2nc(OC[C@@H]3CCCN3C)nc3c2CCC2(CCC(F)(F)c4ccccc42)O3)C[C@@H]1CC#N` (single isomer, unassigned) [Example 7b], the IC50 was found to be 119 nM in test [1] and 2150 nM in the test with NCI-H358 cells.
For `C=CC(=O)N1CCN(c2nc(OC[C@@H]3CCCN3C)nc3c2CCC2(CCC(C)c4ccccc42)O3)C[C@@H]1CC#N` (single isomer, unassigned) [Example 9a], in that order: 40.5 nM and 1940 nM.
Turning to `C=CC(=O)N1CCN(c2nc(OC[C@@H]3CCCN3C)nc3c2CCC2(CCC(C)c4ccccc42)O3)C[C@@H]1CC#N` (single isomer, unassigned) [Example 9b], the IC50 came out at 34.2 nM in test [1] and 1170 nM in the test on NCI-H358 cells.
For `C=CC(=O)N1CCN(c2nc(OC[C@@H]3CCCN3C)nc3c2CCC2(CCC(C)c4ccccc42)O3)C[C@@H]1CC#N` (single isomer, unassigned) [Example 9c], the values for the IC50 (in test [1]; with NCI-H358 cells) were 110 nM and 1840 nM, respectively.
As for `C=CC(=O)N1CCN(c2nc(OC[C@@H]3CCCN3C)nc3c2CCC2(CCC(C)c4ccccc42)O3)C[C@@H]1CC#N` (single isomer, unassigned) [Example 9d], the IC50 amounted to 149 nM in test [1] and 2410 nM in the test with NCI-H358 cells.
For `C=CC(=O)N1CCN(c2nc(OC[C@@H]3CCCN3C)nc3c2CCC2(O3)c3ccccc3CCC2C)C[C@@H]1CC#N` (single isomer, unassigned) [Example 10a], the IC50 worked out at 145 nM in test [1] and 6640 nM in the test on NCI-H358 cells (Homo sapiens, NCI-H358, 2 h).
With `C=CC(=O)N1CCN(c2nc(OC[C@@H]3CCCN3C)nc3c2CCC2(O3)c3ccccc3CCC2C)C[C@@H]1CC#N` (single isomer, unassigned) [Example 10b], the IC50 in test [1] was determined as 50 nM; with NCI-H358 cells, 4530 nM.
As to `C=CC(=O)N1CCN(c2nc(OC[C@@H]3CCCN3C)nc3c2CCC2(CCCc4c(C)cc(C)cc42)O3)C[C@@H]1CC#N` (single isomer, unassigned) [Example 11a], the IC50 in test [1] is 46.7 nM; in the test on NCI-H358 cells, 1800 nM.
As for `C=CC(=O)N1CCN(c2nc(OC[C@@H]3CCCN3C)nc3c2CCC2(CCCc4c(C)cc(C)cc42)O3)C[C@@H]1CC#N` (single isomer, unassigned) [Example 11b], the half-maximal inhibitory concentration (IC50) in test [1] is 661 nM; with NCI-H358 cells, 28600 nM.
The matching figures for `C=CC(=O)N1CCN(c2nc(OCC3(CN(C)C)CC3)nc3c2CCC2(CCCc4ccccc42)O3)C[C@@H]1CC#N` (single isomer, unassigned) [Example 12a]: 99.7 nM and 1330 nM.
For the compound `C=CC(=O)N1CCN(c2nc(OCC3(CN(C)C)CC3)nc3c2CCC2(CCCc4ccccc42)O3)C[C@@H]1CC#N` (single isomer, unassigned) [Example 12b], the IC50 was 728 nM in test [1] and 5620 nM with NCI-H358 cells.
Consider `C=CC(=O)N1CCN(c2nc(OC[C@@H]3CCCN3CC)nc3c2CCC2(CCCc4ccccc42)O3)C[C@@H]1CC#N` (single isomer, unassigned) [Example 15a], for which the IC50 was found to be 43.4 nM in test [1] and 638 nM in the test with NCI-H358 cells.
